Test results taken from US6121274A, “Dihydrobenzofurane” (Byk Gulden Lomberg Chemische Fabrik GmbH, priority 1994, dated 2000).

Tested on: PDE IV
Test: Inhibition of PDE IV activity (Bauer and Schwabe method adapted to microtiter plates)
Assay type: biochemical
Settings: Table A; two-step PDE / 5'-nucleotidase assay, ion-exchange separation

Compound	Inhibition of PDE IV activity, -log IC50
COc1ccc(C(=O)Nc2c(Cl)cncc2Cl)c2c1OC(C)(C)C2 [Compound 1, 2,3-Dihydro-2,2-dimethyl-7-methoxybenzofuran-4-carboxylic acid-N-3,5-dichloro-4-pyridylamide]	8.47
O=C(Nc1c(Cl)cncc1Cl)c1ccc(OC(F)F)c2c1CC1(CCCC1)O2 [Compound 3, 7-Difluoromethoxy-2,3-dihydrobenzofuran-2-spiro-1'-cyclopentane-4-carboxylic acid-N-3,5-dichloro-4-pyridylamide]	9.87
CCC1(CC)Cc2c(C(=O)Nc3c(Cl)cncc3Cl)ccc(OC)c2O1 [Compound 6, 2,2-Diethyl-2,3-dihydro-7-methoxybenzofuran-4-carboxylic acid-N-3,5-dichloro-4-pyridylamide]	8.63
COc1ccc(C(=O)Nc2c(Cl)cccc2Cl)c2c1OC1(CCCC1)C2 [Compound 7, 2,3-Dihydro-7-methoxybenzofuran-2-spiro-1'-cyclopentane-4-carboxylic acid-2,6-dichloroanilide]	8.57
COc1ccc(C(=O)Nc2c(Cl)cncc2Cl)c2c1OC1(CCCC1)C2 [Compound 2, 2,3-Dihydro-7-methoxybenzofuran-2-spiro-1'-cyclopentan-4-carboxylic acid-N-3,5-dichloro-4-pyridylamide]	9.42
COc1ccc(C(=O)Nc2c(Cl)cncc2Cl)c2c1OC1(CCCCC1)C2 [Compound 4, 2,3-dihydro-7-methoxybenzofuran-2-spiro-1'-cyclohexane-4-carboxylic acid-N-3,5-dichloro-4-pyridylamide]	9.09
COc1ccc(C(=O)Nc2c(F)cccc2F)c2c1OC1(CCCC1)C2 [Compound 8, 2,3-Dihydro-7-methoxybenzofuran-2-spiro-1'-cyclopentane-4-carboxylic acid-2,6-difluoroanilide]	8.42
COc1ccc(C(=O)Nc2c(Cl)cncc2Cl)c2c1OC1(CCOCC1)C2 [Compound 5, 2,3-Dihydro-7-methoxybenzofuran-2-spiro-1'-(4'-oxacyclohexane)-4-carboxylic acid-N-3,5-dichloro-4-pyridylamide]	8.57
